Data taken from ChEMBL document CHEMBL5442219.

What was measured:
Details in all cases: Compound concentration 10 µM
[1] = target: T1, Muscarinic acetylcholine receptor M5 (Homo sapiens) (UniProt P08912)
T1 sequence (whole entry): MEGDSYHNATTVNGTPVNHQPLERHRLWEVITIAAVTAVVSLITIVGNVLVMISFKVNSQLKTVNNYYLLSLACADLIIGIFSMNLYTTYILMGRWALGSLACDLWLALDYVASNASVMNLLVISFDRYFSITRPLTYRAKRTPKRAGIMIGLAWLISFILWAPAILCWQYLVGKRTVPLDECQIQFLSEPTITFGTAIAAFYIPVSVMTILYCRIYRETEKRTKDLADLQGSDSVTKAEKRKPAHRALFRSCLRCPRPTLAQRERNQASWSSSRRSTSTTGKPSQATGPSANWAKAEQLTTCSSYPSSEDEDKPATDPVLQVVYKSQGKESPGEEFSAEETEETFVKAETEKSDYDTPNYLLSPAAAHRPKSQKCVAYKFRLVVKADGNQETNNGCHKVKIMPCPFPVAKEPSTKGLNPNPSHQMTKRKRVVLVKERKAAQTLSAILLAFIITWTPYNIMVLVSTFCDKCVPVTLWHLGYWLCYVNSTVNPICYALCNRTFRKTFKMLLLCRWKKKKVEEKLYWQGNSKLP
Description: PDSP Primary Binding target: CHRM5 - Compounds are tested at 10 uM concentration, plate are incubated at room temperature in the dark for 90 minutes. Reaction are stopped by vacuum filtration onto 0.3% polyethyleneimine soaked filter mats using Filtermate harvester. Scintilation cocktail is then melted onto microwave-dried filters on a hot plate and the radio activity is counted in Microbia counter.

[2] = target: T2, Alpha-2C adrenergic receptor (Homo sapiens) (UniProt P18825)
T2 sequence (whole entry): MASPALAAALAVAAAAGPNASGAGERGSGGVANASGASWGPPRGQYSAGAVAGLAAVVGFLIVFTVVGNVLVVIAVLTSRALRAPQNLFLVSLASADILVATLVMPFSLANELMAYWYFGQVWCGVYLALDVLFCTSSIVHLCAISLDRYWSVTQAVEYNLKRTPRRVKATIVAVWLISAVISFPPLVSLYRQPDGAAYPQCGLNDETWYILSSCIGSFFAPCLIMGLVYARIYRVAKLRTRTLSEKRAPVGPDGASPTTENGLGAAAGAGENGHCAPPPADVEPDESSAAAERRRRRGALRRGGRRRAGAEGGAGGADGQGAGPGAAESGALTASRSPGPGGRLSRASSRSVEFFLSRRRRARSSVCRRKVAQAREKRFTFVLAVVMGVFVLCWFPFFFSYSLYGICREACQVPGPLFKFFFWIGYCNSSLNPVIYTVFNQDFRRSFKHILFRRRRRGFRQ
Description: PDSP Primary Binding target: ADRA2C - Compounds are tested at 10 uM concentration, plate are incubated at room temperature in the dark for 90 minutes. Reaction are stopped by vacuum filtration onto 0.3% polyethyleneimine soaked filter mats using Filtermate harvester. Scintilation cocktail is then melted onto microwave-dried filters on a hot plate and the radio activity is counted in Microbia counter.

[3] = target: T3, Alpha-1A adrenergic receptor (Homo sapiens) (UniProt P35348)
T3 sequence (whole entry): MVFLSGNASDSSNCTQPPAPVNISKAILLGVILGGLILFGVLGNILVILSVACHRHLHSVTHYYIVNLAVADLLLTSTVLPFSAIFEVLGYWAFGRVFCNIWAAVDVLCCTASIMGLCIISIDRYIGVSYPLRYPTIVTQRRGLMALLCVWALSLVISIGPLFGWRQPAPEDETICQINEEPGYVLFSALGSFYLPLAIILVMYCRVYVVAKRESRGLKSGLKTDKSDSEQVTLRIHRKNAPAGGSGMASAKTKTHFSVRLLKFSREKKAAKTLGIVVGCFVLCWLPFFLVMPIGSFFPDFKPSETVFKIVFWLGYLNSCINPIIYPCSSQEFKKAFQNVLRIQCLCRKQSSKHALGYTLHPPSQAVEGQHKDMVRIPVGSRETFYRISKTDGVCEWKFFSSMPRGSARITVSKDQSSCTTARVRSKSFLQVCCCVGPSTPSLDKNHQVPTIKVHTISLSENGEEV
Description: PDSP Primary Binding target: ADRA1A - Compounds are tested at 10 uM concentration, plate are incubated at room temperature in the dark for 90 minutes. Reaction are stopped by vacuum filtration onto 0.3% polyethyleneimine soaked filter mats using Filtermate harvester. Scintilation cocktail is then melted onto microwave-dried filters on a hot plate and the radio activity is counted in Microbia counter.

[4] = target: D(3) dopamine receptor (Homo sapiens) (UniProt P35462)
Chain of D(3) dopamine receptor (Homo sapiens) (P35462 whole entry): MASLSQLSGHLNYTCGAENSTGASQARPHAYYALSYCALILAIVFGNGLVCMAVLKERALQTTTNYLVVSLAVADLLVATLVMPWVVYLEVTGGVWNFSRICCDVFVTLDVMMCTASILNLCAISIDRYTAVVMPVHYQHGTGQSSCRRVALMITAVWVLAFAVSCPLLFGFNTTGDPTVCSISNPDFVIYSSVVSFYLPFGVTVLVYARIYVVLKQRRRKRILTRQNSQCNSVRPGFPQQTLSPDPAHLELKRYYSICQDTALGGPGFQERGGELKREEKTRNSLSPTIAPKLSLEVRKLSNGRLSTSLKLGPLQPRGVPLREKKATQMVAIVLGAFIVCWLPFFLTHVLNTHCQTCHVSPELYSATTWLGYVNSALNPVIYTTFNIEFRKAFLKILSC
Description: PDSP Primary Binding target: DRD3 - Compounds are tested at 10 uM concentration, plate are incubated at room temperature in the dark for 90 minutes. Reaction are stopped by vacuum filtration onto 0.3% polyethyleneimine soaked filter mats using Filtermate harvester. Scintilation cocktail is then melted onto microwave-dried filters on a hot plate and the radio activity is counted in Microbia counter.

[5] = target: Kappa-type opioid receptor (Homo sapiens) (UniProt P41145)
Chain of Kappa-type opioid receptor (Homo sapiens) (P41145 whole entry): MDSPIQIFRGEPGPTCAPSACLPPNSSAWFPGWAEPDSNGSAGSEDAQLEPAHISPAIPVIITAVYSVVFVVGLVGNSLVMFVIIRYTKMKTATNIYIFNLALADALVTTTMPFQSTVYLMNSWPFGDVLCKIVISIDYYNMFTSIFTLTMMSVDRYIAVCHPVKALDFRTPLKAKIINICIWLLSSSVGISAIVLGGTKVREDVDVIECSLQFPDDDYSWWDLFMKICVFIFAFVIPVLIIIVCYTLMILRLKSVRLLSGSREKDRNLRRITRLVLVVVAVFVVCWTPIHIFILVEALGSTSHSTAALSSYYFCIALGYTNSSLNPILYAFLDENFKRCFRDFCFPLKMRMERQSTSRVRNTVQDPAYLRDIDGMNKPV
Description: PDSP Primary Binding target: OPRK1 - Compounds are tested at 10 uM concentration, plate are incubated at room temperature in the dark for 90 minutes. Reaction are stopped by vacuum filtration onto 0.3% polyethyleneimine soaked filter mats using Filtermate harvester. Scintilation cocktail is then melted onto microwave-dried filters on a hot plate and the radio activity is counted in Microbia counter.

[6] = target: T4, 5-hydroxytryptamine receptor 1A (Homo sapiens) (UniProt P08908)
T4 sequence (whole entry): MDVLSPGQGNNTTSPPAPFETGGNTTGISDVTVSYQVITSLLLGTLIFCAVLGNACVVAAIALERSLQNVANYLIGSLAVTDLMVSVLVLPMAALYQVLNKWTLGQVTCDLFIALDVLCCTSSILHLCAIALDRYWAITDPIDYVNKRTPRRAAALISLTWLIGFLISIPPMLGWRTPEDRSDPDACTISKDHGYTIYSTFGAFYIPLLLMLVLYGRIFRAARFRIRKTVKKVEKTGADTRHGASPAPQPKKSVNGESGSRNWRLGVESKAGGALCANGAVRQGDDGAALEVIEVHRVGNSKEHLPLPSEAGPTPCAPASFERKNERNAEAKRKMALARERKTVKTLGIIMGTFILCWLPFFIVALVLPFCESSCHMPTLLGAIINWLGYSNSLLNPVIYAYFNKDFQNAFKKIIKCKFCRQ
Description: PDSP Primary Binding target: HTR1A - Compounds are tested at 10 uM concentration, plate are incubated at room temperature in the dark for 90 minutes. Reaction are stopped by vacuum filtration onto 0.3% polyethyleneimine soaked filter mats using Filtermate harvester. Scintilation cocktail is then melted onto microwave-dried filters on a hot plate and the radio activity is counted in Microbia counter.

[7] = target: 5-hydroxytryptamine receptor 2B (Homo sapiens) (UniProt P41595)
Chain of 5-hydroxytryptamine receptor 2B (Homo sapiens) (P41595 whole entry): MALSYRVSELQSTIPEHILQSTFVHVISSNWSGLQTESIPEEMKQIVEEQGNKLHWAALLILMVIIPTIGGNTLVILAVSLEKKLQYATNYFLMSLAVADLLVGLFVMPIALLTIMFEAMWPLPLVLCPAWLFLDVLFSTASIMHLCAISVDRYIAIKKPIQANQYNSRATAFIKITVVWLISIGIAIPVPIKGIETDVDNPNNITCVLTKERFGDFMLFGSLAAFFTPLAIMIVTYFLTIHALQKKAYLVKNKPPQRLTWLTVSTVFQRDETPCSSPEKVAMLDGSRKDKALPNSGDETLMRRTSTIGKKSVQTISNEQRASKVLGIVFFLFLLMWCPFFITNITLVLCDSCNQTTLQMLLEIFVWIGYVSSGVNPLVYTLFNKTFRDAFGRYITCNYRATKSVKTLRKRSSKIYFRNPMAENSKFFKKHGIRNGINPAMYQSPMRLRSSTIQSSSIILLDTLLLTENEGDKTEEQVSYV
Description: PDSP Primary Binding target: HTR2B - Compounds are tested at 10 uM concentration, plate are incubated at room temperature in the dark for 90 minutes. Reaction are stopped by vacuum filtration onto 0.3% polyethyleneimine soaked filter mats using Filtermate harvester. Scintilation cocktail is then melted onto microwave-dried filters on a hot plate and the radio activity is counted in Microbia counter.

[8] = target: Beta-1 adrenergic receptor (Homo sapiens) (UniProt P08588)
Chain of Beta-1 adrenergic receptor (Homo sapiens) (P08588 whole entry, looked up): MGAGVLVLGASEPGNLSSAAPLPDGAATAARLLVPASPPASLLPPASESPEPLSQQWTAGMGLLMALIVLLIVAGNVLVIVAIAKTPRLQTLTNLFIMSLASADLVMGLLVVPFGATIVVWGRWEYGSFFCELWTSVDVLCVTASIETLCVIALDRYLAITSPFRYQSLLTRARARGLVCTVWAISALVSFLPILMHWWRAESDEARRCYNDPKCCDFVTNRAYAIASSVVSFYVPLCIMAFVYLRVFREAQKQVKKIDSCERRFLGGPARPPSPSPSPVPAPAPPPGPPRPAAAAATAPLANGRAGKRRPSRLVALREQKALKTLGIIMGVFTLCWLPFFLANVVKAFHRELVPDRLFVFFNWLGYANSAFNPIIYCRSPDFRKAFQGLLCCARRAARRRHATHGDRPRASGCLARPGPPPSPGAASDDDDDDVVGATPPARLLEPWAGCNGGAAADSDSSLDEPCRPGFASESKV
Description: PDSP Primary Binding target: ADRB1 - Compounds are tested at 10 uM concentration, plate are incubated at room temperature in the dark for 90 minutes. Reaction are stopped by vacuum filtration onto 0.3% polyethyleneimine soaked filter mats using Filtermate harvester. Scintilation cocktail is then melted onto microwave-dried filters on a hot plate and the radio activity is counted in Microbia counter.

[9] = target: 5-hydroxytryptamine receptor 1B (Homo sapiens) (UniProt P28222)
Chain of 5-hydroxytryptamine receptor 1B (Homo sapiens) (P28222 whole entry): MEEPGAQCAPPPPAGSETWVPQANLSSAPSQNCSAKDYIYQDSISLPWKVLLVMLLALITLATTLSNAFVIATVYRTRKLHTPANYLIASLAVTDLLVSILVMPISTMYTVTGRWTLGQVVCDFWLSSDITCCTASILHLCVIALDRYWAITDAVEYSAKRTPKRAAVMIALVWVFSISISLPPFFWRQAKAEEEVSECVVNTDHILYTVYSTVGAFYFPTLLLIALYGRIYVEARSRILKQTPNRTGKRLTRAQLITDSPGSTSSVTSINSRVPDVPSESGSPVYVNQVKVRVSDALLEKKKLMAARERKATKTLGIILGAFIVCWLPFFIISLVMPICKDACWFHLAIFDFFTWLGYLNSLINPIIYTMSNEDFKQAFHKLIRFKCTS
Description: PDSP Primary Binding target: HTR1B - Compounds are tested at 10 uM concentration, plate are incubated at room temperature in the dark for 90 minutes. Reaction are stopped by vacuum filtration onto 0.3% polyethyleneimine soaked filter mats using Filtermate harvester. Scintilation cocktail is then melted onto microwave-dried filters on a hot plate and the radio activity is counted in Microbia counter.

| SMILES | inhibition [1] [%] | inhibition [2] [%] | inhibition [3] [%] | inhibition [4] [%] | inhibition [5] [%] | inhibition [6] [%] | inhibition [7] [%] | inhibition [8] [%] | inhibition [9] [%] |
| --- | --- | --- | --- | --- | --- | --- | --- | --- | --- |
| CC(C)NCC(O)c1ccc(N)c(C#N)c1 (configuration not stated) | -0.9 | -3.24 | -0.15 | -2.07 | 9.69 | 37.6 |  |  |  |
| CCCCN(CC)c1nc(C)nc2c1c(C)cn2-c1c(C)cc(C)cc1C |  | -1.9 | 18.2 | 18.6 | 43.2 | -6.24 | 16.9 | 37.8 | -9.74 |
| CC(C)NCC(O)COc1cccc2ccccc12 (configuration not stated) | 6.07 | 8.7 | 14.6 | 23.3 | 16.1 | 77.5 | 86.3 |  | 9.59 |
| CN1C(=O)[C@@H](NC(=O)c2cc3ccccc3[nH]2)N=C(c2ccccc2)c2ccccc21 | -5.02 | -0.17 | 2.69 | 26.4 | 30.7 | -1.26 | 78.4 | 13.8 | 27.2 |
| CN1CC(=O)N=C1NC(=O)Nc1cccc(Cl)c1 | 6.05 | -3.83 | 7.79 | -3.16 | 2.28 |  | 48.7 |  | 31.2 |
| CNC[C@H](O)c1cccc(O)c1 | -2.82 | 32.8 | 27.4 | 12.7 |  | 1.52 | 20.3 |  | 15.9 |
| S=C(NCCCc1c[nH]cn1)NCCCN(Cc1ccc(Cl)c(Cl)c1)c1ccc(Br)cn1 | 87.6 | 101 | 84.5 | 62.3 | 64.9 | 43.2 | 94.5 | 49.2 | 93.3 |
| CSc1ccc(C(=O)N[C@@H]2CCCC[C@@H]2NC(=O)CNC(=O)c2cc(C(F)(F)F)ccc2NC(=O)NC(C)C)cc1 |  |  | 7.53 | 86.6 | 15.3 | 22.6 | 27.9 | -9.46 |  |
| CC(C)(C)NC[C@H](O)COc1nsnc1N1CCOCC1 | 2.12 | 1.66 | 2.77 | -0.36 | 3.37 | 39.4 | 16.9 |  | 17.9 |
| C=CCN1C[C@H](C)N([C@H](c2ccc(C(=O)N(CC)CC)cc2)c2cccc(O)c2)C[C@H]1C |  | 25.4 | 16.8 | 6.85 | 99.8 |  | 30 |  | 27.1 |
| COc1ccc(C2(O)OC(=O)C(c3ccc4c(c3)OCO4)=C2Cc2cc(OC)c(OC)c(OC)c2)cc1 (configuration not stated) | 28.8 |  | 3.1 | -2.35 | 9.13 | 8.87 |  | -2.63 | 2.7 |
| C/C(=N\NC(=O)[C@@H]1C(=O)NC[C@H]1c1ccccc1)c1cccc(Br)c1 |  | -7.78 | 4.55 |  | 19.1 | 26.4 | 14.3 | -3.09 | 3.07 |
| COc1ccc(S(=O)(=O)c2cc(OC)ccc2S(=O)(=O)c2ccc([C@H](C)NS(C)(=O)=O)cc2)cc1 | -5.9 | 7.85 | 22.6 | 73.4 | 2.71 |  | 23.7 |  | -1.73 |
| CC(C)C[C@H](NC(=O)N1CCCCCC1)C(=O)N[C@H](Cc1cn(C)c2ccccc12)C(=O)N[C@H](Cc1ccccn1)C(=O)O |  | 0.48 | 14.1 | 22.6 | -7.75 |  | 16 | -0.82 | -2.58 |
| CN(C)C(=O)C(CCN1CCC(O)(c2ccc(Cl)cc2)CC1)(c1ccccc1)c1ccccc1 | 2.95 | 39.4 | 42.9 | 42.1 |  | 41.4 | 83.3 | -4.2 | 20.1 |
| C[C@H](CO)Nc1nc(SCc2cccc(Cl)c2F)nc2[nH]c(=O)sc12 |  |  | -7.6 | 13.7 | 11 | 6.98 | -6.11 |  |  |
| N=C(N)SCCc1c[nH]cn1 |  | 20.8 | -6.16 | -0.38 | 5.15 |  | 33 | 3.8 | 8.52 |
| Cc1cc(C)cc(C(=O)N(C)[C@H](Cc2ccc(-c3ccccc3)cc2)C(=O)N[C@@H](Cc2c[nH]c3ccccc23)C(=O)O)c1 |  | 11.1 | 22.3 | 3.03 | 46.1 | 15.9 | -6.62 |  |  |
| Nc1nc2c(c(N3CCNCC3)n1)CCC1=C2[C@@H]2CCCC[C@@H]2O1 | -3.04 | 30.6 | -7.78 |  |  | 49.9 | 81.8 |  |  |
| Nc1nc(NCCc2ccc(O)cc2)nc2nc(-c3ccco3)nn12 |  | 9.88 | -6.79 | 19.9 | -5.28 | -6.94 | 84.3 | 22.3 | 27 |
| COc1cc2c(CCNC(C)=O)c[nH]c2cc1Cl |  | -1.89 | 1.85 |  | -6.29 | -4.64 | 57.2 |  | 25.2 |
| Cc1cccc(NC(=O)N[C@@H]2N=C(c3ccccc3)c3ccccc3N(C)C2=O)c1 |  | 12.3 | -7.27 | 0.6 | 22.5 | -9.64 | 63 |  | 16.2 |
| CCc1cc2c(c(CC)n1)CCC(=O)N2Cc1ccc(-c2ccccc2-c2nnn[nH]2)cc1 | -1.14 | 5.68 | 18.5 | 87.1 | 3.59 | -4.87 | 10.5 |  | 11.5 |
| CCCn1c(=O)c2[nH]c(-c3cnn(Cc4cccc(C(F)(F)F)c4)c3)nc2n(CC)c1=O | -2.1 | -0.44 | -4.72 |  | -2.72 |  | 35.7 | -6.47 | 13.9 |
| Cc1cccc([C@H](C)c2c[nH]cn2)c1C | 3.92 | 99.1 | 63 | 21.5 |  | -0.33 | 51.3 | 3.18 | 31.3 |
